Assay results reported in ChEMBL document CHEMBL4321832 (J Med Chem, 2019).
pEC50, pIC50, pKd: −log10 of the molar value.

Experiments:
A-431 = assay: Antiproliferative activity against human A431 cells assessed as reduction in cell viability incubated for 24 hrs by BrdU based ELISA; format: functional; conditions: A-431, 24 h
[1] = Lipophilicity, logP of compound; format: physicochemical; conditions: octanol/water
MDA-MB-436 = assay: Antiproliferative activity against human MDA-MB-436 cells assessed as reduction in cell viability incubated for 24 hrs by BrdU based ELISA; format: functional; conditions: MDA-MB-436, 24 h
MCF7 = assay: Antiproliferative activity against human MCF7 cells assessed as reduction in cell viability incubated for 24 hrs by BrdU based ELISA; format: functional; conditions: MCF7, 24 h
A549 = assay: Antiproliferative activity against human A549 cells assessed as reduction in cell viability incubated for 24 hrs by BrdU based ELISA; format: functional; conditions: A549, 24 h
[2] = molecular target: T1, CYP51 (lanosterol 14-alpha demethylase) (Homo sapiens, UniProt Q16850); assay: Inhibition of recombinant full length human CYP51 expressed in Escherichia coli at inhibitor/enzyme ratio 50/1 incubated for 1 hr using [3H] lanosterol as substrate by HPLC analysis relative to control; set-up: concentration or dose not given beside the values; conditions: probe [3H] lanosterol
T1 sequence (Q16850 whole entry): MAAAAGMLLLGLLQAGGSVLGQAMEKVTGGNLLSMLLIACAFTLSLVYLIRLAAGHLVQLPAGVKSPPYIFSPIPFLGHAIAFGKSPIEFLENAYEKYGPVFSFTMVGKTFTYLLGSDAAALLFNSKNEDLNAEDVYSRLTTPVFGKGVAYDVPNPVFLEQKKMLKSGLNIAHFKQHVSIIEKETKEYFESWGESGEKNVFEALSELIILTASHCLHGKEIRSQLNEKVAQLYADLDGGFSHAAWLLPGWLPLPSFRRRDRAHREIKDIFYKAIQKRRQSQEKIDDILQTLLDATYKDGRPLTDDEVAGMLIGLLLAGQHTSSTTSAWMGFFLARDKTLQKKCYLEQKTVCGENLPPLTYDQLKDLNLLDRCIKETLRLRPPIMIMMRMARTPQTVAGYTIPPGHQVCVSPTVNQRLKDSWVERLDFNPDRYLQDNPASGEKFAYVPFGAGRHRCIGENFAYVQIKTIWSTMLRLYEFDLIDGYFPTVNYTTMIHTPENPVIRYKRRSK

[3] = molecular target: T2, Lanosterol 14-alpha demethylase (Homo sapiens, UniProt Q16850); assay: Binding affinity to recombinant full length human CYP51 expressed in Escherichia coli incubated for 30 sec using [3H] labelled substrate by HPLC analysis
T2 sequence (Q16850 whole entry): T1 sequence (Q16850 whole entry)

[4] = molecular target: T1, CYP51 (lanosterol 14-alpha demethylase); assay: Inhibition of recombinant full length human CYP51 expressed in Escherichia coli at inhibitor/enzyme ratio 25/1 incubated for 1 hr using [3H] lanosterol as substrate by HPLC analysis relative to control; conditions: probe [3H] lanosterol
[5] = molecular target: T2, Lanosterol 14-alpha demethylase; assay: Inhibition of recombinant full length human CYP51 expressed in Escherichia coli incubated for 1 min using [3H] lanosterol as substrate by HPLC analysis
[6] = molecular target: T2, Lanosterol 14-alpha demethylase; assay: Inhibition of recombinant full length human CYP51 expressed in Escherichia coli incubated for 1 hr using [3H] lanosterol as substrate by HPLC analysis
[7] = Inhibition of human CYP51 T314I mutant expressed in Escherichia coli incubated for 1 hr using [3H] lanosterol as substrate by HPLC analysis

| Compound | pEC50 (A-431) | logP ([1]; read-out: logP) | pEC50 (MDA-MB-436) | pEC50 (MCF7) | pEC50 (A549) | inhibition at 1 h [2] [%] | pKd [3] | inhibition at 1 h [4] [%] | pIC50 [5] | pIC50 [6] | logP [1] | pIC50 [7] |
| --- | --- | --- | --- | --- | --- | --- | --- | --- | --- | --- | --- | --- |
| O=C(N[C@@H](Cn1ccnc1)c1ccc(-c2ccc(F)cc2)cc1F)c1ccc(-c2nnc(-c3ccccc3)o2)cc1 | 4.52 to 5.00 | 5.4 | 4.52 to 5.00 | 4.52 to 5.00 | 4.52 to 5.00 | 64 | 7.05 | 33 | > 6.30 | 4.61 | – | – |
| O=C(N[C@@H](Cn1ccnc1)c1ccc(-c2ccc(F)cc2)cc1Cl)c1ccc(-c2nnc(-c3ccccc3)o2)cc1 | – | – | – | – | – | 91 | – | 73 | > 6.30 | 5.23 | 6.9 | 5.68 |
| O=C(N[C@@H](Cn1ccnc1)c1ccc(-c2ccc(F)cc2)cc1Cl)c1ccc(-c2nnc(-c3cc(F)cc(-c4ccccn4)c3)o2)cc1 | – | 6.8 | – | – | – | 96 | 6.82 | 95 | > 6.30 | > 6.00 | – | – |
| CS(=O)(=O)c1cc(Br)cc(-c2nnc(-c3ccc(C(=O)N[C@@H](Cn4ccnc4)c4ccc(-c5ccc(F)cc5)cc4Cl)cc3)o2)c1 | – | 5.4 | – | – | – | 89 | 6.89 | 82 | > 6.30 | 5.44 | – | – |
| O=C(N[C@@H](Cn1ccnc1)c1ccc(-c2ccc(F)cc2)cc1Cl)c1ccc(-c2nnc(-c3cc(Br)cc4ccccc34)o2)cc1 | – | 7.7 | – | – | – | 73 | 6.33 | 25 | > 6.30 | 4.82 | – | – |
| O=C(N[C@@H](Cn1ccnc1)c1ccc(-c2ccc(F)cc2)cc1-c1ccco1)c1ccc(-c2nnc(-c3ccccc3)o2)cc1 | – | 5.8 | – | – | – | 8 | – | 0 | 5.28 | < 4.60 | – | – |
| O=C(N[C@@H](Cn1ccnc1)c1ccc(-c2ccc(F)cc2)cc1-c1ccccc1)c1ccc(-c2nnc(-c3ccccc3)o2)cc1 | – | 5.3 | – | – | – | 41 | – | 0 | 5.82 | < 4.60 | – | – |
| CS(=O)(=O)c1cc(-c2ccccn2)cc(-c2nnc(-c3ccc(C(=O)N[C@@H](Cn4ccnc4)c4ccc(-c5ccc(F)cc5)cc4Cl)cc3)o2)c1 | – | 5.3 | – | – | – | 90 | 7.70 | 82 | > 6.30 | 5.36 | – | – |
| O=C(N[C@@H](Cn1ccnc1)c1ccc(-c2ccc(F)cc2)cc1Cl)c1ccc(-c2nnc(-c3cc(-c4ccccn4)ccc3F)o2)cc1 | – | 6.8 | – | – | – | 93 | – | – | – | – | – | – |
| COc1ccc(-c2cc(-c3ccc(F)cc3)ccc2[C@H](Cn2ccnc2)NC(=O)c2ccc(-c3nnc(-c4ccccc4)o3)cc2)cc1 | – | 5.8 | – | – | – | 0 | – | 0 | 4.92 | < 4.60 | – | – |
| O=C(N[C@@H](Cn1ccnc1)c1ccc(-c2ccc(F)cc2)cc1Cl)c1ccc(-c2nnc(-c3cc(F)cc(-c4ncncc4F)c3)o2)cc1 | – | 6.3 | – | – | – | 98 | 7.05 | 98 | > 6.30 | > 6.00 | – | – |
| O=C(N[C@@H](Cn1ccnc1)c1ccc(-c2ccc(F)cc2)c2ccccc12)c1ccc(-c2nnc(-c3ccccc3)o2)cc1 | – | 5.8 | – | – | – | 1 | – | 0 | 5.52 | < 4.60 | – | – |
